Assay results from ChEMBL document CHEMBL3352803, “Peripherally restricted CB1 receptor blockers” (Bioorg Med Chem Lett, 2013).
pIC50, pKi: −log10 of the molar value.

Columns and labels:
[1] = test system: Rattus norvegicus; test: Receptor occupancy at CB1 receptor in rat frontal cortex at 10 mg/kg, po; type: functional
[2] = target: T1, Cannabinoid receptor 1 (Homo sapiens, UniProt P21554); test: Inverse agonist activity at human CB1 receptor
[3] = target: T2, Cannabinoid receptor 1 (Rattus norvegicus, UniProt P20272); test: Inverse agonist activity at rat CB1 receptor
T2 sequence (P20272 whole entry): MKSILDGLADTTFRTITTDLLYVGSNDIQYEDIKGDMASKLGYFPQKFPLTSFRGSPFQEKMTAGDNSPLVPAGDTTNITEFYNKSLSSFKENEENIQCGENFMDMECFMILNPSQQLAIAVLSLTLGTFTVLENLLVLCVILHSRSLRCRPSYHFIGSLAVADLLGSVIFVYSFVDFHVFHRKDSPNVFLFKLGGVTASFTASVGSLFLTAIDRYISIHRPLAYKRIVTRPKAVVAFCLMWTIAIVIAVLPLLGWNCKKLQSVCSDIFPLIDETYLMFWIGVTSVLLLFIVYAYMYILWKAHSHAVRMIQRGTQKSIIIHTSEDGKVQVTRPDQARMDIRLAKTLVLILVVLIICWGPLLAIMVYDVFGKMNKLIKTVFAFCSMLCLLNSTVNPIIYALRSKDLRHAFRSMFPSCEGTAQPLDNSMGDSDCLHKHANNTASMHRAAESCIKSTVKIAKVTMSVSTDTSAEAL

[4] = test system: Rattus norvegicus; test: Receptor occupancy at CB1 receptor in rat frontal cortex at 3 to 10 mg/kg, po; type: functional; details: dose mg/kg 3-10
[5] = organism: Rattus norvegicus; test: Receptor occupancy at CB1 receptor in diet-induced obese rat assessed as weight loss; type: functional
[6] = test system: Brain; test: Drug uptake in rat brain; type: ADME, tissue-based; details: in vivo, read-out: Drug uptake
[7] = target: T1, Cannabinoid receptor 1; test: Antagonist activity at human CB1 receptor
[8] = test system: Brain; test: Drug uptake in mouse brain; type: ADME, tissue-based; details: in vivo, read-out: Drug uptake
[9] = test system: Nucleic Acid; test: Ratio of drug uptake in plasma to brain of po dosed mouse; type: ADME, organism-based; details: in vivo
[10] = target: T1, Cannabinoid receptor 1; test: Binding affinity at CB1 receptor (unknown origin)
[11] = test system: Nucleic Acid; test: Ratio of drug uptake in plasma to brain of C57BL/6J mouse; type: ADME; details: in vivo
[12] = test system: Mus musculus; test: Ex vivo binding affinity at CB1 receptor in mouse at 10 mg/kg, iv; type: functional
[13] = target: T1, Cannabinoid receptor 1; test: Binding affinity to human CB1 receptor
[14] = Cmax in rat at 10 mg/kg; type: ADME, organism-based; parameters: dose 10 mg/kg; details: in vivo
[15] = Lipophilicity, log D of the compound; type: physicochemical; details: octanol/water
[16] = Protein binding in rat plasma at 10 mg/kg; type: ADME, organism-based; parameters: dose 10 mg/kg; details: read-out: PPB
[17] = target: T2, Cannabinoid receptor 1; test: Antagonist activity at rat CB1 receptor

T1 sequence (P21554 whole entry): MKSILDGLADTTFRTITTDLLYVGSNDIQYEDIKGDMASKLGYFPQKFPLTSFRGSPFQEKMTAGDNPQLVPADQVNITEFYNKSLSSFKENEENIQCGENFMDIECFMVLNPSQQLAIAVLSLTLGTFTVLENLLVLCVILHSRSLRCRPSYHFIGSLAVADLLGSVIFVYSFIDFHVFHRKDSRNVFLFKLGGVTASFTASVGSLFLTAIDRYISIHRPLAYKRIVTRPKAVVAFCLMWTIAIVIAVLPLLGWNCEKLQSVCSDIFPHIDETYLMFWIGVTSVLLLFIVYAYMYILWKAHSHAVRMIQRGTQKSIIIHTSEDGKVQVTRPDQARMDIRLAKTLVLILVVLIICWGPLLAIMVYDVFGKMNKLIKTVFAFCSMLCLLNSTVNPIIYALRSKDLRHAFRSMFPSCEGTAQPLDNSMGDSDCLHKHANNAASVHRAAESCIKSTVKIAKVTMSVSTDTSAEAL

CN/C(=N\S(=O)(=O)c1ccc(Cl)cc1)N1C[C@H](c2ccccc2)C(c2ccc(Cl)cc2)=N1 [IBIPINABANT]
Occ [1]: 11%

CCCCCCc1nc(-c2ccc(Cl)cc2)n(-c2ccc(Cl)cc2Cl)n1
pIC50 [2]: 6.20
pIC50 [3]: 6.16

Cc1c(C(=O)NN2CCCCC2)nn(-c2ccc(Cl)cc2Cl)c1-c1ccc(Cl)cc1 [RIMONABANT]
Occ [4]: >65%

C[C@H](NC(=O)C(C)(C)Oc1ccc(C(F)(F)F)cn1)[C@@H](Cc1ccc(Cl)cc1)c1cccc(C#N)c1 [TARANABANT]
Occ [5]: 30%

Cc1c(C(=O)NN2CCS(=O)(=O)CC2)nn(-c2ccc(Cl)cc2Cl)c1-c1ccc(C#CCCC#N)cc1
concentration [6]: 0.05 µM
pKi [7]: 9.00
concentration [8]: 0.05 µM
Ratio [9]: 33

CCc1c(C(=O)NN2CCCCC2)nn(-c2ccc(Cl)cc2Cl)c1-c1ccc(C#Cc2ccc(C(F)(F)F)cc2)s1
pKi [10]: 8.52
pIC50 [2]: 8.07
Ratio [11]: 33
Ratio [9]: 1.2

CS(=O)(=O)NCCCn1c(C(=O)N2CCC(C(N)=O)(N3CCC(F)(F)CC3)CC2)cc(-c2ccc(Cl)cc2Cl)c1-c1ccc(Cl)cc1
Activity [12]: 28%

CC1(C)C(=O)N(c2ccc(F)c(C(F)(F)F)c2)C(=O)C1Cc1ccc(F)cc1NC(=O)Nc1ccc(S(N)(=O)=O)cc1 (stereo not given)
pIC50 [13]: 8.00
pKi [13]: 8.05
Cmax [14]: 0.43 µM
logD [15]: 3.66
fraction unbound [16]: < 0.01

Cc1c(/C=C/C(=O)NCc2cccc(Cl)c2)nn(-c2ccc(Cl)cc2Cl)c1-c1ccc(Cl)cc1
pIC50 [17]: 6.80
